Data: patent publication US8921416B2, “Dronedarone solid dispersion and preparation method thereof” (Jiangsu Hengrui Medicine Co., Ltd., priority 2010, dated 2014)
Counter-ions that a name gives are not always drawn.

Experiments:
[1] = 24 h solubility of solid dispersions in PBS pH6.8; format: physicochemical; conditions: 37 °C, pH 6.8, aqueous buffer, thermodynamic from solid
Description: The weight ratio of the drug to the carrier was 1:5. Different hydrophilic polymeric carrier materials were selected from the group consisting of polyethylene glycol 6000, poloxamer 188, PVP K30, Klucel® EF, Plasdone® S-630, mannitol and combinations thereof respectively. 12 parts by weight of dichloromathane were added into the drug and carrier mixture, and was dissolved by stirring. Then the solution was transferred to a vacuum oven, maintained at 55° C., dried under reduced pressure for 48 h. Then the dry mass was crushed with a 100 mesh sieve, thereby the solid dispersion of dronedarone was obtained. The solubilities of the solid dispersion in the phosphate buffered saline (PBS) at pH6.8 were measured as follows.
24 h Solubility Determination: aliquots of the prepared solid dispersion were added into a 100 ml conical flask respectively. Then 50 ml PBS pH6.8 were added. The conical flask was sealed and placed in a thermostatic waterbath shaker and shaked at a set temperature of 37° C. for 24 h. After 24 hours, 10 mL of the solution were taken and filtrated. The initial 4 mL of the filtrate were abandoned and the subsequent filtrate were taken and diluted with PBS pH6.8 to a corresponding folds. The UV absorbance at 290 nm was measured with a UV spectrophotometer. Then the drug solubilities were calculated.

[2] = pH=7; cited from earlier work

| solubility at 24 h [1] | SMILES | solubility in an aqueous solution [2] |
| --- | --- | --- |
| 12 µg/mL | CCCCc1oc2ccc(NS(C)(=O)=O)cc2c1C(=O)c1ccc(OCCCN(CCCC)CCCC)cc1 [Dronedarone hydrochloride] | – |
| – | CCCCc1oc2ccc(NS(C)(=O)=O)cc2c1C(=O)c1ccc(OCCCN(CCCC)CCCC)cc1 [dronedarone, N-(2-Butyl-3-(4-(3-(dibutylamino)propoxy)benzoyl)-5-benzofuranyl)methanesulfonamide] | about 10 μg/ml |
